Like-named read-outs stand apart in the source and are kept apart here.
How the values were obtained:
Assay in all cases: Kinase panel profiling at 1 µmol/L (MSA or IMAP), percentage inhibition
Assay type in all cases: biochemical
[1] = target: T1, panel of 255 wild-type kinases (Homo sapiens, UniProt O15111); conditions: read-out: %-inhibition at 1 µmol/L, IKKα
T1 sequence (O15111 1-745): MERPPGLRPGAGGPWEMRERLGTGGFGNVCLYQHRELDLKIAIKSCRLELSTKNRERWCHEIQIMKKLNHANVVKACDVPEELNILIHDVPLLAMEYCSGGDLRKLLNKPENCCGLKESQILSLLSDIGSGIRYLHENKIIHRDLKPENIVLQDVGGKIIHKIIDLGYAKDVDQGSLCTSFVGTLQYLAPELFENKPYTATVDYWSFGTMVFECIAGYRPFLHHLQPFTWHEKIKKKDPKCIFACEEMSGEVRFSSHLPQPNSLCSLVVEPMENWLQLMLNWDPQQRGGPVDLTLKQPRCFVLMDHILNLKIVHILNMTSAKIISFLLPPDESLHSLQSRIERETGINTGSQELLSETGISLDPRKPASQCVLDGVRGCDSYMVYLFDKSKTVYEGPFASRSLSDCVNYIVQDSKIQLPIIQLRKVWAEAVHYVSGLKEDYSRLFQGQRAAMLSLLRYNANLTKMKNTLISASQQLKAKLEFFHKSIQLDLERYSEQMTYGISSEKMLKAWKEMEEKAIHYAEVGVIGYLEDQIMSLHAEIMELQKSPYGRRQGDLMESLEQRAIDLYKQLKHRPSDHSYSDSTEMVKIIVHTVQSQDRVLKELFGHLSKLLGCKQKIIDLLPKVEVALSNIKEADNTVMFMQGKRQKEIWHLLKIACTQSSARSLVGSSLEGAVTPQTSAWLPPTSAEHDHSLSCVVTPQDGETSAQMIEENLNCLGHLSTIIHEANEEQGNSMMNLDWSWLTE

[2] = target: panel of 255 wild-type kinases (Homo sapiens, UniProt P11362); conditions: read-out: %-inhibition at 1 µmol/L, FGFR1
[3] = target: panel of 255 wild-type kinases (Homo sapiens, UniProt P23443); conditions: read-out: %-inhibition, p70S6K
[4] = target: T2, panel of 255 wild-type kinases (Homo sapiens, UniProt P51955); conditions: read-out: %-inhibition, NEK2
T2 sequence (P51955 1-445): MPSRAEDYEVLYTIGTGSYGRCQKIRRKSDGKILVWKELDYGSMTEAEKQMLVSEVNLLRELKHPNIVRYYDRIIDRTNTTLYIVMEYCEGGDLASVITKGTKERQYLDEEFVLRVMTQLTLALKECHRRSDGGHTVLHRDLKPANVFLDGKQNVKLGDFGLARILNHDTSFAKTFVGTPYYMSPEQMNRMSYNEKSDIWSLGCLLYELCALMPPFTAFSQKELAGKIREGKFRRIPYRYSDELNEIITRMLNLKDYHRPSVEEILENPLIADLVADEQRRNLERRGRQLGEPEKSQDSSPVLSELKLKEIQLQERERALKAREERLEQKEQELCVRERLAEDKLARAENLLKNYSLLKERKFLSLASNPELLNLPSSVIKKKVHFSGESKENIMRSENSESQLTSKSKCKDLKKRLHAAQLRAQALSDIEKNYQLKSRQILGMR

[5] = target: panel of 255 wild-type kinases (Homo sapiens, UniProt Q13555); conditions: read-out: %-inhibition CaMK2γ
[6] = target: panel of 255 wild-type kinases (Homo sapiens, UniProt Q16512); conditions: read-out: %-inhibition at 1 µmol/L, PKN1
[7] = target: panel of 255 wild-type kinases (Homo sapiens, UniProt Q86V86); conditions: read-out: %-inhibition at 1 µmol/L, PIM3
[8] = target: T3, panel of 255 wild-type kinases (Homo sapiens, UniProt Q9UHD2); conditions: read-out: %-inhibition at 1 µmol/L, TBK1
T3 sequence (Q9UHD2 1-729): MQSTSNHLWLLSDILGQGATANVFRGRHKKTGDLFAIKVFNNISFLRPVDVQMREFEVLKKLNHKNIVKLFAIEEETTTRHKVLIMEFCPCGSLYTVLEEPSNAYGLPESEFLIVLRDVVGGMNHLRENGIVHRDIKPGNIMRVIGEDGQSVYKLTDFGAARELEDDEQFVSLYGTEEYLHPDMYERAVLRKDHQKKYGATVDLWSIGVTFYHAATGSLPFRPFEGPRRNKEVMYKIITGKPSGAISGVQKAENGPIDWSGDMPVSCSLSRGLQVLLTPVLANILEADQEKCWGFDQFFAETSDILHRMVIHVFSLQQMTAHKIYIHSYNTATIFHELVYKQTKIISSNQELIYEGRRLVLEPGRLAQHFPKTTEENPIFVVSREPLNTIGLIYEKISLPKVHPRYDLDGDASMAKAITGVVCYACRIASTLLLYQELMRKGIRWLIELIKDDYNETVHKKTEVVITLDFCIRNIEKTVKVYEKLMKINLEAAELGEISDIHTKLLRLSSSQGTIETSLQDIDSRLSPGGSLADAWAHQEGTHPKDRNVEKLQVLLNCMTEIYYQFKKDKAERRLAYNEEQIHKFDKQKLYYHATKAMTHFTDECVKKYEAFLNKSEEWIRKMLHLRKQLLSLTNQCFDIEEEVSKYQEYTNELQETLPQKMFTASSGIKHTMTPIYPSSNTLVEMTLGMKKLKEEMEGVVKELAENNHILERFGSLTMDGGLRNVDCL

[9] = kinase IKKα, 1 µmol/L single concentration
[10] = kinase FGFR1, 1 µmol/L single concentration
[11] = p70S6K, 1 µmol/L single concentration
[12] = NEK2, 1 µmol/L single concentration
[13] = CaMK2γ kinase assay, 1 µmol/L single concentration
[14] = kinase PKN1, 1 µmol/L single concentration
[15] = kinase PIM3, 1 µmol/L single concentration
[16] = kinase TBK1, 1 µmol/L single concentration

inhibition at 1 µM [1, 9] [%]	inhibition at 1 µM [2, 10] [%]	inhibition at 1 µM [3, 11] [%]	inhibition at 1 µM [4, 12] [%]	inhibition at 1 µM [5, 13] [%]	inhibition at 1 µM [6, 14] [%]	inhibition at 1 µM [7, 15] [%]	inhibition at 1 µM [8, 16] [%]	Structure (SMILES)	inhibition at 1 µM [1] [%]	inhibition at 1 µM [2] [%]	inhibition at 1 µM [3] [%]	inhibition at 1 µM [4] [%]	inhibition at 1 µM [5] [%]	inhibition at 1 µM [6] [%]	inhibition at 1 µM [7] [%]	inhibition at 1 µM [8] [%]
-0.157	-1.41	8	9	-3	10	-0.0221	-1.18	Cn1cnc2c(F)c(Nc3ccc(Br)cc3Cl)c(C(=O)NOCCO)cc21 [selumetinib]								
-1.36	97	42	2	0.226	9	-2.65	12	COc1ccc(CN2C3CC2CN(c2ccc(-c4cc(OCC(C)(C)O)cn5ncc(C#N)c45)cn2)C3)cn1 [selpercatinib]								
2.45	-2	-1.58	-0.367	-0.126	7	-5.31	0.0799	O=C(Nc1cnn2ccc(N3CCC[C@@H]3c3cc(F)ccc3F)nc12)N1CC[C@H](O)C1 [larotrectinib]								
8	-0.103	6	9	0.463	11	-7	-2.46	C[C@H](Nc1ncnc2nc[nH]c12)c1cc2cccc(Cl)c2c(=O)n1-c1ccccc1 [duvelisib]								
-1.52	96	29	7.4	-3	27	-0.165	-0.586	CO[C@]1(C(=O)N[C@@H](C)c2ccc(-n3cc(F)cn3)nc2)CC[C@H](c2nc(C)cc(Nc3cc(C)[nH]n3)n2)CC1 [pralsetinib]								
-1.68	-3.24	15	2.8	-5	18	-1.3	-3	Cc1cc(Nc2ncnc3ccc(NC4=NC(C)(C)CO4)cc23)ccc1Oc1ccn2ncnc2c1 [tucatinib]								
9	2	4.72	0.117	-3.65	6	5	0.416	Cn1cnc2c(F)c(Nc3ccc(Br)cc3F)c(C(=O)NOCCO)cc21 [binimetinib]								
6	4.29	9	7.4	0.455	8	-13	-2.72	Cc1nc(NC(=O)N2CCC[C@H]2C(N)=O)sc1-c1ccnc(C(C)(C)C(F)(F)F)c1 [alpelisib]								

More lines, now with the values behind:

Structure (SMILES)	inhibition at 1 µM [1, 9] [%]	inhibition at 1 µM [2, 10] [%]	inhibition at 1 µM [3, 11] [%]	inhibition at 1 µM [4, 12] [%]	inhibition at 1 µM [5, 13] [%]	inhibition at 1 µM [6, 14] [%]	inhibition at 1 µM [7, 15] [%]	inhibition at 1 µM [8, 16] [%]	inhibition at 1 µM [1] [%]	inhibition at 1 µM [2] [%]	inhibition at 1 µM [3] [%]	inhibition at 1 µM [4] [%]	inhibition at 1 µM [5] [%]	inhibition at 1 µM [6] [%]	inhibition at 1 µM [7] [%]	inhibition at 1 µM [8] [%]
CCN1C(=O)N(c2c(F)c(OC)cc(OC)c2F)Cc2cnc3[nH]c(CN4CCOCC4)cc3c21 [pemigatinib]	-6		-0.418	-2	5	10	-8	0								
CNC(=O)c1ccc(-c2cnc3ncc(Cc4ccc5ncccc5c4)n3n2)cc1F [capmatinib]									1.1	-0.662	5.68	2.36	-1.68	16	1.78	-2.83
FC(F)(F)c1ccc(CNc2ccc(Cc3c[nH]c4ncc(Cl)cc34)cn2)cn1 [pexidartinib]	-0.379	45	31	-0.918	0.769	-4.55	4.68	6								
C=CC(=O)N1CCC([C@@H]2CCNc3c(C(N)=O)c(-c4ccc(Oc5ccccc5)cc4)nn32)CC1 [zanubrutinib]	-10	4.53	-3.21	-0.59	1.6	-11	-8	0.115								
C[C@H]1Oc2cc(cnc2N)-c2c(nn(C)c2C#N)CN(C)C(=O)c2ccc(F)cc21 [lorlatinib]	12	3.43	8	10	10	4.68	-6	-1.23								
CCN1CCN(c2ccc(Nc3cc(N(C)C(=O)Nc4c(Cl)c(OC)cc(OC)c4Cl)ncn3)cc2)CC1 [infigratinib]	2.62	100	5.33	27	-3.37	13	0.254	-4								
COC(=O)N[C@@H](C)CNc1nccc(-c2cn(C(C)C)nc2-c2cc(Cl)cc(NS(C)(=O)=O)c2F)n1 [encorafenib]	12	4.27	14	2.77	-3.25	6	10	1.21								
CCc1nc(C(N)=O)c(Nc2ccc(N3CCC(N4CCN(C)CC4)CC3)c(OC)c2)nc1NC1CCOCC1 [gilteritinib]	2.16	55	79	38	62	65	23	24								

Reference: PMC9516332 (Frontiers in Oncology, 2022)
